Some results are limits rather than exact numbers.

In this test the target is T1, Human eIF4E (Homo sapiens, UniProt P06730).
T1 construct: Human eIF4E (aa 28-217) with a C-terminal His-tag; made in house
T1 sequence (P06730 28-217): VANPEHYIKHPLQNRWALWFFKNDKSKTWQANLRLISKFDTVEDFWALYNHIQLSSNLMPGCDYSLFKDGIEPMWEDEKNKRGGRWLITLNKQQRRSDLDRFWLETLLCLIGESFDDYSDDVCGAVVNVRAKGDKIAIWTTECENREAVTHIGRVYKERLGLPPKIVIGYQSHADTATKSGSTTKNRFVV
Briefly: Human eIF4E/4G2 binding assay (TR-FRET). The conditions noted are these: purified human eIF4E (aa 28-217), biotin labeled 4G2 peptide, 4 hours preincubation at room temperature. The method, then:
Example 3. Compound Testing in Human eIF4E/4G2 Binding Assay
Human eIF4E (aa 28-217) with a C-terminal His-tag was expressed in E. coli in inclusion bodies. The protein was solubilized with 8 M urea and purified under denaturing conditions using nickel-charged HisTrap HP columns (GE Healthcare). The purified protein was then refolded by diluting in 20 mM Hepes pH 7.0, 0.5 M NaCl, 1 mM DTT, 1 mM EDTA, 0.5 M arginine plus 6 M urea, and then dialyzing overnight into the same buffer without the urea. The protein was further dialyzed into 20 mM Hepes, pH 6.5, 50 mM NaCl, 1 mM EDTA, 1 mM DTT, and concentrated using Hitrap SP sepharose FF columns (GE Healthcare). The concentrated protein was dialyzed into 20 mM Hepes, pH 7.0, 0.5 M NaCl, 5 mM DTT and 10% glycerol, and stored at -80° C. until use.
Test compounds (3.43 mM stock in DMSO) were diluted 2-fold in series in DMSO (10 concentration points). Compound solutions (1.2 µl/well) were added into black 384-well polypropylene microplates (Matrix, Thermal Scientific). Twenty-two microliters per well of Assay Buffer (50 mM NaPi, pH 6.5, 50 mM KCl, 1 mM DTT and 0.5 mg/ml gamma globulin) and eight microliters per well of 82.5 nM purified eIF4E in Assay Buffer were added. The samples were incubated at room temperature (20-23° C.) for 4 hours. Biotin labeled 4G2 peptide (Ac-Lys-Gln-Tyr-Asp-Arg-Glu-Phe-Leu-Leu-Asp-Phe-Gln-Phe-Met-Pro-Lys(Aha-Bio)-NH2, 1.75 µM stock in DMSO) was diluted to 0.14 µM in Assay Buffer (without DTT) and 5 µl/well was added. The samples were incubated at room temperature for 20 min. Five microliters per well of 6.4 nM Eu-streptavidin (Eu-SA, Perkin Elmer) and 80 nM Allophycocyanin (APC)-anti His antibody (Columbia Biosciences) in Assay Buffer (without DTT) were then added and the samples were incubated at room temperature for 20 min.
Assay signals were monitored by reading excitation at 340 nm and emission fluorescence at 615 nm and 665 nm on an Envision reader (Perkin Elmer). Normalized TR-FRET (time-resolved fluorescence resonance energy transfer) assay signal (Rn) was calculated by the formula: Rn = [(A-Ba-C x D)/(D-Bd)] x (Dc- Bd) • Where A is the fluorescence intensity of the sample at 665 nm, • D is the fluorescence intensity of the sample at 615 nm, • Ba and Bd are plate backgrounds at 665 nm and 615 nm, respectively, • Dc is the fluorescence intensity of 0.78 nM Eu-SA in the assay buffer at 615 nm • The cross-talk factor (C) is determined by the following formula: • C = (Ac- Ba)/(Dc-Bd) • Where Ac is the fluorescence intensity of 0.78 nM Eu-SA in the assay buffer at 665 nm.
IC50 values were calculated using xLFit program (IDBS). Table 2 below lists […] of some compounds, wherein A represents IC50 ≤ 0.5 µM; B represents 0.5 uM < IC50 ≤ 1 µM; and C represents IC50 > 1 µM.
In general, IC50 refers to the midpoint of a concentration-inhibition curve. Low values mean greater potency, high ones weaker potency. As to `CCc1cccc(-c2nc(Nc3ncc(-c4cccs4)cc3C(=O)O)sc2CC(C)C)c1` [I-123], the IC50 was not above 0.5 µM.
Compound `CC(C)COc1cc(-c2nc(Nc3ncc(-c4cccs4)cc3C(=O)O)sc2CC(C)(C)C)ccc1Cl` [I-97] came in with an IC50 not above 0.5 µM.
With `CC(C)Cc1sc(Nc2ncc(-c3cccs3)cc2C(=O)O)nc1-c1cccs1` [I-126] the figure was not above 0.5 µM; with `Cc1csc(-c2cnc(Nc3nc(-c4ccc(OC(F)F)cc4)c(CC(C)C)s3)c(C(=O)O)c2)c1` [1-36], not above 0.5 µM.
The same measure for `CCCc1sc(Nc2ncc(-c3cccs3)cc2C(=O)O)nc1-c1cccc(OCC)c1` [I-112]: not above 0.5 µM.
The same measure for `COc1ccc(-c2nc(Nc3ncc(-c4cccs4)nc3C(=O)O)sc2CCC(C)C)cc1Cl` [I-61]: not above 0.5 µM; for `CC(C)Cc1sc(Nc2ncc(-c3cccs3)cc2C(=O)O)nc1-c1ccc(OC(F)F)cc1` [I-15]: 0.5 to 1 µM.
With `COc1ccc(-c2nc(Nc3cnc(-c4cccs4)cc3C(=O)O)sc2CC(C)C)cc1F` [I-71], the IC50 was 0.5 to 1 µM.
Consider `COCCOc1cccc(-c2nc(Nc3ncc(-c4cccs4)cc3C(=O)OC)sc2CC(C)C)c1` [I-148, methyl 2-((5-isobutyl-4-(3-(2-methoxyethoxy)phenyl)thiazol-2-yl)amino)-5-(thiophen-2-yl)nicotinate], for which the IC50 was more than 1 µM.
The same measure for `CCOc1cc(-c2nc(Nc3ncc(-c4cccs4)cc3C(=O)O)sc2CC(C)(C)C)ccc1Cl` [I-93]: not above 0.5 µM; for `COCCOc1ccc(-c2nc(Nc3ncc(-c4cccs4)nc3C(=O)O)sc2CC(C)C)cc1F` [I-54]: not above 0.5 µM.
The same measure for `COc1ccc(-c2nc(Nc3cc(-c4ccccc4)sc3C(=O)O)sc2C2CC2)c(F)c1` [I-25]: 0.5 to 1 µM; for `COc1cc(-c2nc(Nc3ncc(-c4cccs4)cc3C(=O)O)sc2CC(C)C)ccc1Cl` [I-74]: not above 0.5 µM; for `COCCOc1ccc(-c2nc(Nc3ncc(-c4cc(C)cs4)cc3C(=O)O)sc2CC(C)C)cc1Cl` [I-44]: not above 0.5 µM.
On to `COc1ccc(-c2nc(Nc3ncc(-c4cccs4)nc3C(=O)O)sc2CC(C)C)cc1F` [I-60, 3-((4-(3-fluoro-4-methoxyphenyl)-5-isobutylthiazol-2-yl)amino)-6-(thiophen-2-yl)pyrazine-2-carboxylic acid], for which the IC50 is not above 0.5 µM.
Compound `CCOc1cc(-c2nc(Nc3ncc(-c4cccs4)cc3C(=O)O)sc2CC(C)C)ccc1F` [I-81] yielded a half-inhibitory concentration (IC50) not above 0.5 µM.
Take `CC(C)Cc1sc(Nc2ncc(-c3cccs3)cc2C(=O)O)nc1-c1ccc(OCC(F)(F)F)cc1` [I-7]: the IC50 is not above 0.5 µM.
The same measure for `COc1cc(-c2nc(Nc3ncc(-c4cccs4)cc3C(=O)O)sc2CC(C)(C)C)ccc1F` [I-91]: not above 0.5 µM; for `CC(C)Cc1sc(Nc2ncc(-c3cccs3)cc2C(=O)O)nc1-c1cccc(Oc2ccccc2)c1` [I-129, 2-((5-isobutyl-4-(3-phenoxyphenyl)thiazol-2-yl)amino)-5-(thiophen-2-yl)nicotinic acid]: not above 0.5 µM.
The same measure for `CC(C)Cc1sc(Nc2ncc(-c3cccs3)cc2C(=O)O)nc1-c1ccc(O)cc1` [I-13]: more than 1 µM; for `COCCCOc1ccc(-c2nc(Nc3ncc(-c4cccs4)cc3C(=O)O)sc2CC(C)C)cc1Cl` [I-48]: not above 0.5 µM.
The compound `CC(C)Cc1sc(Nc2ncc(-c3cccs3)cc2C(=O)O)nc1-c1cccc(OCCOCCN(C)C)c1` [I-116] had an IC50 of more than 1 µM.
With `CC(C)Cc1sc(Nc2ncc(-c3cccs3)cc2C(=O)O)nc1-c1ccc(OC2CC2)cc1` [I-8] the figure was not above 0.5 µM; with `CCN(CC)CCOCCOc1cccc(-c2nc(Nc3ncc(-c4cccs4)cc3C(=O)O)sc2CC(C)C)c1` [I-117], more than 1 µM; with `COCCOc1cccc(-c2nc(Nc3ncc(-c4cccs4)cc3C(=O)O)sc2CC(C)C)c1` [I-122, 2-((5-isobutyl-4-(3-(2-methoxyethoxy)phenyl)thiazol-2-yl)amino)-5-(thiophen-2-yl)nicotinic acid], not above 0.5 µM.
The same measure for `CCOc1cccc(-c2nc(Nc3ncc(-c4cccs4)cc3C(=O)O)sc2CC(C)(C)C)c1` [I-98]: not above 0.5 µM; for `CC(C)Cc1sc(Nc2ncc(-c3cccs3)cc2C(=O)O)nc1-c1ccc2c(c1)OC(C)(C)O2` [I-125]: not above 0.5 µM; for `COCCOc1ccc(-c2nc(Nc3ncc(-c4cc(C)cs4)cc3C(=O)O)sc2C2CCCC2)cc1` [1-38]: 0.5 to 1 µM.
With `COCCOc1ccc(-c2nc(Nc3ncc(-c4ccc(C)s4)cc3C(=O)O)sc2CC(C)C)cc1F` [I-41] the figure was not above 0.5 µM; with `Cc1csc(-c2cnc(Nc3nc(-c4ccc(OC(F)F)cc4)c(C4CCCC4)s3)c(C(=O)O)c2)c1` [1-39], not above 0.5 µM.
On to `CCOc1ccc(-c2nc(Nc3ncc(-c4cccs4)cc3C(=O)O)sc2CC(C)C)cc1` [I-11], for which the half-inhibitory concentration (IC50) is not above 0.5 µM.
With `Cc1ccc(-c2nc(Nc3ncc(-c4cccs4)cc3C(=O)O)sc2CC(C)C)s1` [I-141] the figure was not above 0.5 µM; with `CCOCCOc1ccc(-c2nc(Nc3ncc(-c4cccs4)cc3C(=O)O)sc2CC(C)C)cc1F` [I-66], not above 0.5 µM.
The same measure for `COCCOc1ccc(-c2nc(Nc3ncc(-c4ccc(C)s4)cc3C(=O)O)sc2CC(C)C)cc1Cl` [I-43]: not above 0.5 µM; for `CC(C)COc1cc(-c2nc(Nc3ncc(-c4cccs4)cc3C(=O)O)sc2CC(C)C)ccc1F` [I-89]: not above 0.5 µM; for `CC(C)Cc1sc(Nc2cc(-c3ccccc3)sc2C(=O)O)nc1-c1ccc(OC2CC2)cc1` [I-14]: 0.5 to 1 µM.
With `COCCOc1ccc(-c2nc(Nc3ncc(-c4cccs4)cc3C(=O)O)sc2CCC(C)C)cc1Cl` [I-45] the figure was not above 0.5 µM; with `CC(C)COc1cc(-c2nc(Nc3ncc(-c4cccs4)cc3C(=O)O)sc2CC(C)(C)C)ccc1F` [I-96], not above 0.5 µM; with `CCc1ccc(-c2nc(Nc3ncc(-c4cccs4)cc3C(=O)O)sc2CC(C)C)cc1OC` [I-110], not above 0.5 µM.
`COCCOc1ccc(-c2nc(Nc3ncc(-c4cccs4)cc3C(=O)O)sc2C(C)C)cc1F` [I-31] returned an IC50 of 0.5 to 1 µM.
With `COc1cc(C)cc(-c2nc(Nc3ncc(-c4cccs4)cc3C(=O)O)sc2CC(C)C)c1` [I-109] the figure was not above 0.5 µM; with `Cc1ccc(-c2nc(Nc3ncc(-c4cccs4)cc3C(=O)O)sc2CC(C)C)cc1OC(C)C` [I-114], not above 0.5 µM.
With `COCCCOc1ccc(-c2nc(Nc3ncc(-c4cccs4)cc3C(=O)O)sc2CC(C)C)cc1F` [I-47] the figure was not above 0.5 µM; with `CC(C)Cc1sc(Nc2ncc(-c3cccs3)cc2C(=O)O)nc1-c1cccc(OCCF)c1` [I-103], not above 0.5 µM.
Consider `COCCOc1ccc(-c2nc(Nc3ncc(-c4ccc(C)s4)cc3C(=O)O)sc2C2CCCC2)cc1` [I-37], for which the IC50 is not above 0.5 µM.
The same measure for `COc1cc(-c2nc(Nc3ncc(-c4cccs4)cc3C(=O)O)sc2CCC(C)C)ccc1Cl` [I-90]: not above 0.5 µM; for `CCOc1cccc(-c2nc(Nc3ncc(-c4cccs4)cc3C(=O)O)sc2CCC(C)C)c1` [I-105]: not above 0.5 µM; for `CC(C)Cc1sc(Nc2ncc(-c3cccs3)cc2C(=O)O)nc1-c1ccc(OCCOC(C)C)c(F)c1` [I-67]: not above 0.5 µM.
With `Cc1ccc(-c2cnc(Nc3nc(-c4ccc(OC(F)F)cc4)c(CC(C)C)s3)c(C(=O)O)c2)s1` [I-33] the figure was more than 1 µM; with `CC(C)Cc1sc(Nc2ncc(-c3cccs3)cc2C(=O)O)nc1-c1ccc(OC(F)(F)F)c(Cl)c1` [I-9], not above 0.5 µM.

(Values after patent publication US20230150997A1, “EIF4E INHIBITORS AND USES THEREOF” (PIC Therapeutics, Inc., priority 2021, published 2023).)
